{
  "source": "paper PMC7177638",
  "about": "(International Journal of Molecular Sciences, 2020)",
  "key": {"A431 cells": {"tested_on": "A431 cells", "assay": "Cellular accumulation of Pt (GF-AAS)", "type": "cell-based, human", "conditions": "24 h, 0.5 μM", "description": "It is clearly recognized that the antitumor activity of platinum-based anticancer drugs depends on the ability of compounds to accumulate into cancer cells and to bind to nuclear DNA, thus inducing transcription inhibition and cell death. Therefore, we investigated the cellular uptake as well as the DNA binding ability of 1–6 in human A431cervical cancer cells. Cells were treated for 24 h with 0.5 μM of 1–6 or CDDP and the total cellular and DNA-bound platinum contents were quantified using GF–AAS analysis. The results, expressed as ng of metal per 10^6 cells, in the case of cellular uptake (A) and as pg of metal per μg of DNA, in the case of DNA-bound platinum (B) are summarized in Figure 9.\nA431 cells (2·10^6) were seeded in 75 cm^2 flasks in growth medium (20 mL). After 24 h, the medium was replaced and the cells incubated for 24 h in the presence of the tested complexes.\nCells monolayers were washed twice with cold phosphate-buffered saline (PBS), harvested, and counted. Samples were subjected to three freeze–thaw cycles at −80 °C, and then vigorously vortexed. The samples were treated with highly pure nitric acid (1 mL; Pt ≤ 0.01 mg kg^−1, Trace-SELECT Ultra, Sigma Chemical Co.) and transferred into a microwave Teflon vessel. Subsequently, samples were submitted to standard mineralization procedures. Samples were analyzed for platinum by using a Varian AA Duo graphite furnace atomic absorption spectrometer (Varian, Palo Alto, CA; USA) at a wavelength of […]. The calibration curve was obtained using known concentrations of standard solutions purchased from Sigma Chemical Co."}, "[1]": {"tested_on": "panel of human cancer cell lines (PSN-1, HCT-15, LoVo, A431, 2008)", "assay": "MTT cytotoxicity, average over the panel of human cancer cell lines", "type": "cell-based", "conditions": "72 h", "description": "The in vitro cytotoxic activities of compounds 1–6 were assayed on a panel of human cancer cell lines containing examples of pancreatic (PSN-1), colon (HCT-15 and LoVo), cervical (A431), and ovarian (2008) cancers. Cisplatin and oxaliplatin were used as reference compounds and were tested under the same experimental conditions.\n[17, 30] Thus, the pharmacological activity decreases in the order 3 >> 1 ≈ 2 ≈ 4 > 5 > 6.\nThe growth inhibitory effect toward the tumor cell lines was evaluated by the MTT test. Briefly, 3-8·10^3 cells/well, depending upon the growth characteristics of the cell lines, were seeded in 96-well microplates in growth medium (100 µL) and then incubated at 37 °C in a 5% carbon dioxide atmosphere. After 24 h, the medium was removed and replaced with a fresh one containing the compound to be tested at the appropriate concentration. Triplicate cultures were established for each treatment. After 72 h, each well was treated with 10 µL of a 5 mg·mL^−1 MTT (3-(4,5-dimethylthiazol-2-yl)-2,5-diphenyltetrazolium bromide) saline solution and, after 5 h of incubation, 100 µL of a sodium dodecylsulfate (SDS) solution in HCl 0.01 M were added. Following an overnight incubation, the inhibition of cell growth induced by the tested complexes was evaluated by measuring the absorbance of each well at 570 nm using a Bio-Rad 680 microplate reader (Bio-Rad Laboratories S.r.l., Segrate (MI), Italy)."}, "[2]": {"assay": "Stability in solution followed by 1H-NMR (solvent-assisted photoreduction)", "type": "physicochemical", "conditions": "DMSO-d6, room temperature, not shielded from light", "description": "(5.4–6.5 ppm). Most likely, compound 4 underwent a solvent-assisted reduction process favored by light, as previously observed for similar compounds such as cis,trans,cis-[PtCl2(OH)2(cis-1,4-DACH)] [19, 20]. […] This reduction/solvation could also be observed in other solvents, such as D2O and CD3OD.\nAs for compound 4, the reduction is probably fostered by the presence of axial chlorido ligand(s).\nThe ^13C NMR signals are influenced by the asymmetry of the complex with respect to the equatorial plane with two peaks at 125.4 and 125.2 ppm for the vinylic carbons, two signals at 60.2 and 59.3 ppm for the methynic carbons, and two signals at 33.1 and 32.6 ppm for the methylenic carbons (Figure S10)."}},
  "data": [
    {"smiles": "NC1CC=CCC1N.O=C([O-])C(=O)[O-].O=C([O-])c1ccccc1.O=C([O-])c1ccccc1.[Pt+4]", "note": "(mixture of isomers) [Complex 3, cis,trans,cis-[Pt(OXA)(BzO)2(DACHEX)]]", "values": [
      {"measurement": "cellular uptake (cellular internalization of Pt), in words", "setting": "A431 cells", "value": "the most effective in entering cancer cells"},
      {"measurement": "times more cytotoxic than the other Pt(IV) compounds of the series", "setting": "[1]", "value": "about five times more active"},
      {"measurement": "times more cytotoxic than the other Pt(IV) compounds of the series", "setting": "[1]; listed as bis-benzoate derivative", "value": "5–8"},
      {"measurement": "IC50", "setting": "[1]; mean over the cell line panel", "value": 260, "unit": "nM"}
    ]},
    {"smiles": "CC(=O)[O][Pt]1([Cl])[O]C(=O)C(=O)[O]1.NC1CC=CCC1N", "note": "(racemic) [Complex 5, cis,trans,cis-[Pt(OXA)(AcO)Cl(DACHEX)]]", "values": [
      {"measurement": "cellular uptake (cellular internalization of Pt), in words", "setting": "A431 cells", "value": "the worst in crossing the cell plasmalemma"},
      {"measurement": "stability in solution (reduction to Pt(II) / solvation)", "setting": "[2]", "value": "shows a photo-assisted reduction accompanied by solvation"}
    ]},
    {"smiles": "NC1CC=CCC1N.O=C1[O][Pt]([OH])([Cl])[O]C1=O", "note": "(racemic) [Complex 6, cis,trans,cis-[Pt(OXA)(OH)Cl(DACHEX)]]", "values": [
      {"measurement": "cellular uptake (cellular internalization of Pt), in words", "setting": "A431 cells", "value": "the worst in crossing the cell plasmalemma"},
      {"measurement": "stability in solution (reduction to Pt(II) / solvation)", "setting": "[2]", "value": "underwent reduction followed by solvation"}
    ]}
  ]
}
